Data: PubChem BioAssay (NCI)
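Where inhibition never reached the appropriate level, the endpoint shown equals the highest concentration tested. Otherwise, values were interpolated linearly from a five-concentration, 48-hour dose response in 96-well plates. TGI denotes the concentration required for complete inhibition of growth.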

Assays:
Experiment in all cases: NCI tumour cell line growth inhibition, 48 h
SR leukemia = test system: SR leukemia
CAKI-1 renal = test system: CAKI-1 renal
SW-620 colon = test system: SW-620 colon
HT29 colon = test system: HT29 colon
A498 renal = test system: A498 renal
HOP-92 NSCLC = test system: HOP-92 NSCLC
EKVX NSCLC = test system: EKVX NSCLC
U251 CNS = test system: U251 CNS
CCRF-CEM leukemia = test system: CCRF-CEM leukemia
SK-MEL-5 melanoma = test system: SK-MEL-5 melanoma
UACC-62 melanoma = test system: UACC-62 melanoma
MDA-N = test system: MDA-N
OVCAR-3 ovarian = test system: OVCAR-3 ovarian
HCT-15 colon = test system: HCT-15 colon
HS 578T breast = test system: HS 578T breast
IGROV1 ovarian = test system: IGROV1 ovarian
HL-60(TB) leukemia = test system: HL-60(TB) leukemia
SF-539 CNS = test system: SF-539 CNS
MOLT-4 leukemia = test system: MOLT-4 leukemia
OVCAR-8 ovarian = test system: OVCAR-8 ovarian
NCI-H23 lung = test system: NCI-H23 lung
NCI-H460 lung = test system: NCI-H460 lung
T-47D breast = test system: T-47D breast
K-562 leukemia = test system: K-562 leukemia
SF-268 CNS = test system: SF-268 CNS
DU-145 prostate = test system: DU-145 prostate
HCT-116 colon = test system: HCT-116 colon
NCI/ADR-RES ovarian = test system: NCI/ADR-RES ovarian
SN12C renal = test system: SN12C renal
SNB-19 CNS = test system: SNB-19 CNS
TK-10 renal = test system: TK-10 renal
MCF7 breast = test system: MCF7 breast
OVCAR-4 ovarian = test system: OVCAR-4 ovarian
HCC-2998 colon = test system: HCC-2998 colon
LOX IMVI melanoma = test system: LOX IMVI melanoma
NCI-H522 lung = test system: NCI-H522 lung
KM12 colon = test system: KM12 colon
ACHN renal = test system: ACHN renal
A549 NSCLC = test system: A549 NSCLC
786-0 renal = test system: 786-0 renal
OVCAR-5 ovarian = test system: OVCAR-5 ovarian
M14 melanoma = test system: M14 melanoma
HOP-62 NSCLC = test system: HOP-62 NSCLC
SNB-75 CNS = test system: SNB-75 CNS
PC-3 prostate = test system: PC-3 prostate
RXF 393 renal = test system: RXF 393 renal
UO-31 renal = test system: UO-31 renal
MDA-MB-231 breast = test system: MDA-MB-231 breast
MALME-3M melanoma = test system: MALME-3M melanoma
UACC-257 melanoma = test system: UACC-257 melanoma
MDA-MB-435 = test system: MDA-MB-435
SK-MEL-28 melanoma = test system: SK-MEL-28 melanoma
COLO 205 colon = test system: COLO 205 colon
SK-OV-3 ovarian = test system: SK-OV-3 ovarian
SF-295 CNS = test system: SF-295 CNS
RPMI-8226 leukemia = test system: RPMI-8226 leukemia
NCI-H226 lung = test system: NCI-H226 lung
SK-MEL-2 melanoma = test system: SK-MEL-2 melanoma
BT-549 breast = test system: BT-549 breast

Nc1cc2c3c(cccc3c1)NC2=O
TGI (SR leukemia): > 100 µM
TGI (CAKI-1 renal): > 100 µM
TGI (SW-620 colon): > 100 µM
TGI (HT29 colon): > 100 µM
TGI (A498 renal): > 100 µM
TGI (HOP-92 NSCLC): > 100 µM
TGI (EKVX NSCLC): > 100 µM
TGI (U251 CNS): > 100 µM
TGI (CCRF-CEM leukemia): > 100 µM
TGI (SK-MEL-5 melanoma): > 100 µM
TGI (UACC-62 melanoma): > 100 µM
TGI (MDA-N): > 100 µM
TGI (OVCAR-3 ovarian): > 100 µM
TGI (HCT-15 colon): > 100 µM
TGI (HS 578T breast): > 100 µM
TGI (IGROV1 ovarian): > 100 µM
TGI (HL-60(TB) leukemia): > 100 µM
TGI (SF-539 CNS): > 100 µM
TGI (MOLT-4 leukemia): > 100 µM
TGI (OVCAR-8 ovarian): > 100 µM
TGI (NCI-H23 lung): > 100 µM
TGI (NCI-H460 lung): > 100 µM
TGI (T-47D breast): > 100 µM
TGI (K-562 leukemia): > 100 µM
TGI (SF-268 CNS): > 100 µM
TGI (DU-145 prostate): > 100 µM
TGI (HCT-116 colon): > 100 µM
TGI (NCI/ADR-RES ovarian): > 100 µM
TGI (SN12C renal): > 100 µM
TGI (SNB-19 CNS): > 100 µM
TGI (TK-10 renal): > 100 µM
TGI (MCF7 breast): > 100 µM
TGI (OVCAR-4 ovarian): > 100 µM
TGI (HCC-2998 colon): > 100 µM
TGI (LOX IMVI melanoma): > 100 µM
TGI (NCI-H522 lung): 74 µM
TGI (KM12 colon): > 100 µM
TGI (ACHN renal): > 100 µM
TGI (A549 NSCLC): > 100 µM
TGI (786-0 renal): > 100 µM
TGI (OVCAR-5 ovarian): > 100 µM
TGI (M14 melanoma): > 100 µM
TGI (HOP-62 NSCLC): > 100 µM
TGI (SNB-75 CNS): > 100 µM
TGI (PC-3 prostate): > 100 µM
TGI (RXF 393 renal): > 100 µM
TGI (UO-31 renal): > 100 µM
TGI (MDA-MB-231 breast): > 100 µM
TGI (MALME-3M melanoma): > 100 µM
TGI (UACC-257 melanoma): > 100 µM
TGI (MDA-MB-435): > 100 µM
TGI (SK-MEL-28 melanoma): > 100 µM
TGI (COLO 205 colon): > 100 µM
TGI (SK-OV-3 ovarian): > 100 µM
TGI (SF-295 CNS): > 100 µM
TGI (RPMI-8226 leukemia): > 100 µM
TGI (NCI-H226 lung): > 100 µM
TGI (SK-MEL-2 melanoma): > 100 µM

S=c1[nH]nc(Cn2c3ccc(Br)cc3c3nc4ccccc4nc32)n1C1CCCCC1
TGI (SR leukemia): 60.6 µM
TGI (CAKI-1 renal): > 100 µM
TGI (SW-620 colon): > 100 µM
TGI (HT29 colon): > 100 µM
TGI (A498 renal): 58.1 µM
TGI (HOP-92 NSCLC): 19.6 µM
TGI (EKVX NSCLC): > 100 µM
TGI (U251 CNS): > 67.6 µM
TGI (CCRF-CEM leukemia): 84.1 µM
TGI (SK-MEL-5 melanoma): 49.1 µM
TGI (UACC-62 melanoma): 41.1 µM
TGI (MDA-N): > 93.7 µM
TGI (OVCAR-3 ovarian): > 59.7 µM
TGI (HCT-15 colon): > 100 µM
TGI (IGROV1 ovarian): > 100 µM
TGI (SF-539 CNS): 42.1 µM
TGI (MOLT-4 leukemia): 28.6 µM
TGI (OVCAR-8 ovarian): > 67.5 µM
TGI (NCI-H23 lung): 42.1 µM
TGI (NCI-H460 lung): > 100 µM
TGI (T-47D breast): > 100 µM
TGI (K-562 leukemia): > 100 µM
TGI (SF-268 CNS): > 100 µM
TGI (DU-145 prostate): > 100 µM
TGI (HCT-116 colon): 40.2 µM
TGI (NCI/ADR-RES ovarian): > 92 µM
TGI (SN12C renal): > 56.6 µM
TGI (SNB-19 CNS): > 96.7 µM
TGI (TK-10 renal): > 95.1 µM
TGI (MCF7 breast): > 100 µM
TGI (OVCAR-4 ovarian): > 100 µM
TGI (HCC-2998 colon): 61 µM
TGI (LOX IMVI melanoma): 23 µM
TGI (BT-549 breast): > 83 µM
TGI (NCI-H522 lung): 67.4 µM
TGI (KM12 colon): > 100 µM
TGI (ACHN renal): 98.9 µM
TGI (A549 NSCLC): > 64.1 µM
TGI (786-0 renal): 54.8 µM
TGI (OVCAR-5 ovarian): > 100 µM
TGI (M14 melanoma): > 100 µM
TGI (HOP-62 NSCLC): > 63.5 µM
TGI (SNB-75 CNS): > 100 µM
TGI (PC-3 prostate): > 66.9 µM
TGI (RXF 393 renal): 70.1 µM
TGI (UO-31 renal): > 76.2 µM
TGI (MDA-MB-231 breast): > 75.2 µM
TGI (MALME-3M melanoma): 72.7 µM
TGI (UACC-257 melanoma): > 100 µM
TGI (MDA-MB-435): > 100 µM
TGI (SK-MEL-28 melanoma): > 56.8 µM
TGI (COLO 205 colon): > 59.8 µM
TGI (SK-OV-3 ovarian): 83.7 µM
TGI (SF-295 CNS): 49.5 µM
TGI (RPMI-8226 leukemia): 59.4 µM
TGI (NCI-H226 lung): > 76.6 µM
TGI (SK-MEL-2 melanoma): 54.6 µM

COc1cc(OC)cc(Oc2nc3cc(F)c(F)cc3nc2-c2ccccc2)c1
TGI (SR leukemia): > 100 µM
TGI (CAKI-1 renal): > 100 µM
TGI (SW-620 colon): > 100 µM
TGI (HT29 colon): > 100 µM
TGI (A498 renal): > 100 µM
TGI (HOP-92 NSCLC): > 100 µM
TGI (EKVX NSCLC): > 100 µM
TGI (U251 CNS): > 100 µM
TGI (CCRF-CEM leukemia): > 100 µM
TGI (SK-MEL-5 melanoma): > 100 µM
TGI (UACC-62 melanoma): > 100 µM
TGI (MDA-N): > 100 µM
TGI (OVCAR-3 ovarian): > 100 µM
TGI (HCT-15 colon): > 100 µM
TGI (HS 578T breast): > 100 µM
TGI (IGROV1 ovarian): > 100 µM
TGI (HL-60(TB) leukemia): > 100 µM
TGI (SF-539 CNS): > 100 µM
TGI (MOLT-4 leukemia): > 100 µM
TGI (OVCAR-8 ovarian): > 100 µM
TGI (NCI-H23 lung): > 100 µM
TGI (NCI-H460 lung): > 100 µM
TGI (T-47D breast): > 100 µM
TGI (SF-268 CNS): > 100 µM
TGI (DU-145 prostate): > 100 µM
TGI (HCT-116 colon): > 100 µM
TGI (NCI/ADR-RES ovarian): > 100 µM
TGI (SN12C renal): > 100 µM
TGI (SNB-19 CNS): > 100 µM
TGI (TK-10 renal): > 100 µM
TGI (MCF7 breast): > 100 µM
TGI (OVCAR-4 ovarian): > 100 µM
TGI (LOX IMVI melanoma): > 100 µM
TGI (BT-549 breast): > 100 µM
TGI (NCI-H522 lung): > 100 µM
TGI (KM12 colon): > 100 µM
TGI (ACHN renal): > 100 µM
TGI (A549 NSCLC): > 100 µM
TGI (786-0 renal): > 100 µM
TGI (OVCAR-5 ovarian): > 100 µM
TGI (M14 melanoma): > 100 µM
TGI (HOP-62 NSCLC): > 100 µM
TGI (SNB-75 CNS): > 100 µM
TGI (PC-3 prostate): > 100 µM
TGI (RXF 393 renal): > 100 µM
TGI (UO-31 renal): > 100 µM
TGI (MALME-3M melanoma): > 100 µM
TGI (UACC-257 melanoma): > 100 µM
TGI (MDA-MB-435): > 100 µM
TGI (SK-MEL-28 melanoma): > 100 µM
TGI (COLO 205 colon): > 100 µM
TGI (SK-OV-3 ovarian): > 100 µM
TGI (SF-295 CNS): > 100 µM
TGI (NCI-H226 lung): > 100 µM
TGI (SK-MEL-2 melanoma): > 100 µM
